Legend:
[1] = molecular target: T1, Nuclear receptor ROR-gamma (Homo sapiens, UniProt P51449); assay: Agonist activity at APC-labeled RORgammat LBD (unknown origin) incubated for 1 hr in presence of europium labeled co-activator SRC1 by dual FRET assay
T1 sequence (P51449 whole entry): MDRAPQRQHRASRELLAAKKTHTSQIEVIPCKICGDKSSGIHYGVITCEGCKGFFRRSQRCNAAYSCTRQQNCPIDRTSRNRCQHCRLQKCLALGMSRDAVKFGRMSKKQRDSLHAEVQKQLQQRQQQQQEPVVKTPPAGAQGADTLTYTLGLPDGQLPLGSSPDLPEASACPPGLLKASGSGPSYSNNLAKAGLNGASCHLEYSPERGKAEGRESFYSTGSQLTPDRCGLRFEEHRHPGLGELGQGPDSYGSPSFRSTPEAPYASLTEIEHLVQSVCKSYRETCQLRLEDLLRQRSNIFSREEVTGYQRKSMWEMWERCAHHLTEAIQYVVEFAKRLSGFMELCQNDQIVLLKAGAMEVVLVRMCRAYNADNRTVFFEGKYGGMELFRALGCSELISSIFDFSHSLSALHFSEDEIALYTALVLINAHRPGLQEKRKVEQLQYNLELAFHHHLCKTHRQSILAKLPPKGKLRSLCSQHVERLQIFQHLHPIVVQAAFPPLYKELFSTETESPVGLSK

[2] = molecular target: T1, Nuclear receptor ROR-gamma; assay: Agonist activity at human RORgammat LBD expressed in HEK293T cells assessed as increase in Gal4 reporter gene transcription measured after 16 to 20 hrs by luciferase reporter gene assay; format: cell-based
[3] = molecular target: T2, Nuclear receptor ROR-gamma (Mus musculus) (UniProt P51450); assay: Agonist activity at RORgammat in mouse CD4+ T cells assessed as induction of Th17 cells differentiation by measuring increase in IL17 production at 250 nM measured after 4 days by intracellular staining based flow cytometry (reference value: 16.5 %); format: cell-based; conditions: CD4+ve Th, time 4.0 day
T2 sequence (whole entry): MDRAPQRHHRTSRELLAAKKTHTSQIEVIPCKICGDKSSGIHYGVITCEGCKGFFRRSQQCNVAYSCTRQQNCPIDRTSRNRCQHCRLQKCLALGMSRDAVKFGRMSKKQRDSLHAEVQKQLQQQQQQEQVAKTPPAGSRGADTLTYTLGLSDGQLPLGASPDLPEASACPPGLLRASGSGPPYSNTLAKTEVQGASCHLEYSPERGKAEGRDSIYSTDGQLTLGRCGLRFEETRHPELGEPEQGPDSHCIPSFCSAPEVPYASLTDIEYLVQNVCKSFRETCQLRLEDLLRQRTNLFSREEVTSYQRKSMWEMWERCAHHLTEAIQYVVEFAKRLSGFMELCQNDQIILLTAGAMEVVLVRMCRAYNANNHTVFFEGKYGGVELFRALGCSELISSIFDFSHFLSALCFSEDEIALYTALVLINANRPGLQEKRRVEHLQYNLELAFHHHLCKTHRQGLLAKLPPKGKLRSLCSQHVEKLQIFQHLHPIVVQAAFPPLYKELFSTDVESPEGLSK

SMILES	EC50 [1] [nM]	further results
CCCN(Cc1ccc(NC(=O)Cc2ccc(S(=O)(=O)CC)cc2)cc1)Cc1cccnc1	40.2	
CCCN(Cc1ccc(NC(=O)Cc2ccc(S(C)(=O)=O)cc2)cc1)CC1CCCCC1		EC50 [2]: 277 nM
CCS(=O)(=O)c1ccc(CC(=O)Nc2ccc(CN(Cc3ccccc3)CC3CCC3)cc2)cc1	7.1	
CCCN(Cc1ccc(NC(=O)Cc2ccc(S(=O)(=O)CC)cc2)cc1)CC1CCC1	291	
CCCN(Cc1ccccc1)Cc1c(Cl)cc(NC(=O)Cc2ccc(S(=O)(=O)CC)cc2)cc1Cl	8.2	
CCCN(Cc1ccccc1)Cc1ccc(NC(=O)NCc2ccc(S(=O)(=O)CC)cc2)cc1	58	
CCS(=O)(=O)c1ccc(CC(=O)Nc2ccc(CN(Cc3ccccc3)CC3CC3)cc2)cc1	14	
CCCN(Cc1ccccc1)Cc1ccc(C(=O)NCc2ccc(S(=O)(=O)CC)cc2)cc1	9.2	
CCCN(Cc1ccccc1)Cc1ccc(NCCc2ccc(S(=O)(=O)CC)cc2)cc1	33.6	
CCCN(Cc1ccc(Cl)cc1)Cc1ccc(NC(=O)Cc2ccc(S(=O)(=O)CC)cc2)cc1	16.8	
CCCN(Cc1ccc(NC(=O)Cc2ccc(S(=O)(=O)CC)cc2)cc1)Cc1ccccc1C	11.6	
CCCN(Cc1ccc(NC(=O)Cc2ccc(S(=O)(=O)CC)cc2)cc1)CC1CCCO1 (stereo unspecified)	285	
CCCN(Cc1ccccc1)Cc1ccc(NC(=O)Cc2ccc(S(=O)(=O)CC)cn2)cc1	7100	
CCCN(Cc1ccccc1)Cc1ccc(NC(=O)Cc2ccc(C#N)cc2)cc1	346	
CCCN(Cc1ccccc1)Cc1ccc(NC(=O)Cc2ccc(C(=O)O)cc2)cc1	> 30000	
CCS(=O)(=O)c1ccc(CC(=O)Nc2ccc(CN(C)Cc3ccccc3)cc2)cc1	101	
CCCN(CCc1ccccc1)c1ccc(NC(=O)Cc2ccc(S(=O)(=O)CC)cc2)cc1	11.6	
CCCN(Cc1ccc(NC(=O)Cc2ccc(S(=O)(=O)CC)cc2)cc1)CC1CCOCC1	86.2	

SMILES	EC50 [1] [nM]	further results
CCCN(Cc1ccc(NC(=O)Cc2ccc(S(=O)(=O)CC)cc2)cc1)CC1CC1	6530	
CCN(Cc1ccccc1)Cc1ccc(NC(=O)Cc2ccc(S(=O)(=O)CC)cc2)cc1	36.3	
CCCN(Cc1ccc(NC(=O)Cc2ccc(S(=O)(=O)CC)cc2)cc1)Cc1ccccc1F	9.4	
CCS(=O)(=O)c1ccc(CC(=O)Nc2ccc(CNCc3ccccc3)cc2)cc1	> 30000	
CCCN(Cc1ccccc1)Cc1ccc(NC(=O)Cc2ccccc2)cc1	2170	
CCCN(Cc1ccc(NC(=O)Cc2ccc(S(=O)(=O)CC)cc2)cc1)CC1CCCC1	109	
CCCN(Cc1ccc(NC(=O)Cc2ccc(S(C)(=O)=O)cc2)cc1Cl)CC1CCCCC1		EC50 [2]: 283 nM; Activity [3]: 21.9%
CCCCN(Cc1ccccc1)Cc1ccc(NC(=O)Cc2ccc(S(=O)(=O)CC)cc2)cc1	11.1	
CCCN(Cc1c(Cl)cc(NC(=O)Cc2ccc(S(C)(=O)=O)cc2)cc1Cl)CC1CCCCC1		EC50 [2]: 382 nM
CCCN(Cc1ccc(NC(=O)Cc2ccc(S(=O)(=O)CC)cc2)cc1)Cc1ccccc1Cl	16.9	
CCCN(Cc1ccc(NC(=O)Cc2ccc(S(=O)(=O)CC)cc2)cc1)CC1CCC(F)(F)CC1	79.6	
CCCN(Cc1ccccc1)Cc1ccc(NC(=O)Cc2ccc(S(C)(=O)=O)cc2)cc1	43.1	
CCCN(Cc1ccc(NC(=O)Cc2ccc(S(=O)(=O)CC)cc2)cc1)Cc1cccs1	29.1	
CCS(=O)(=O)c1ccc(CC(=O)Nc2ccc(NCCc3ccccc3)cc2)cc1	55.2	
CCS(=O)(=O)c1ccc(CC(=O)Nc2ccc(CN(Cc3ccccc3)CC3CC3)c(Cl)c2)cc1	8	
CCCN(Cc1ccccc1)Cc1ccc(NC(=O)Cc2ccc(S(=O)(=O)CC)cc2)cc1Cl	8.7	
CCCN(Cc1ccc(NC(=O)Cc2ccc(S(=O)(=O)CC)cc2)cc1)Cc1nccs1	> 30000	

— ChEMBL document CHEMBL5053492, “Discovery of tert-amine-based RORγt agonists” (Eur J Med Chem, 2021)
